Where a name gives a salt, the structure may show the parent alone.
Experiments:
sclerostin = target: T1, sclerostin (Homo sapiens, UniProt Q9BQB4); test: Modulation of sclerostin/Wnt activity (sclerostin inhibition assay): restoring Wnt3a signaling in the presence of sclerostin; assay type: cell-based; settings: IC100 class; Wnt3a signaling in human embryonic cells in presence of sclerostin
T1 construct: host or cells: human embryonic cells (reporter cells)
T1 sequence (Q9BQB4 24-213): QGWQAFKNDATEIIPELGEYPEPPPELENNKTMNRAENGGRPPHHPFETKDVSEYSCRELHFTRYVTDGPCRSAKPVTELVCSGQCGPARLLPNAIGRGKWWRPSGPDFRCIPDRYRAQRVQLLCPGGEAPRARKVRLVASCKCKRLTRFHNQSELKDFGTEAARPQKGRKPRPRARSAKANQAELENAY

[1] = tested on: MC3T3-E1 (mouse calvarial) osteoblast cells; test: Rescue of sclerostin inhibition of mineralization (total calcium); assay type: cell-based; settings: Mus musculus, MC3T3-E1; IC100 class; calcium concentration, MC3T3 osteoblast cells treated with sclerostin; read-out: Sclerostin Inhibition of Mineralization; improvement over sclerostin alone.
Method: Mineralization (crystalline calcium phosphate formation) represents an in vitro model of bone formation. […] Following the protocol described in Li et al., Compounds were assayed for their ability to rescue the inhibition of mineralization by sclerostin in MC3T3 osteoblast cells.

MC3T3 osteoblast cells = test: Osteocalcin (OCN) secretion, bone formation marker, ELISA; assay type: cell-based, mouse; settings: Mus musculus; IC100 class; OCN secreted from MC3T3 osteoblast cells treated with sclerostin
Method: Bone formation can also be assayed in vitro or in vivo using a serum marker for bone formation, osteocalcin (OCN), available from Biomedical Tecnhnologies, Inc. (Stoughton, Mass.). Following the manufacturer's protocol for the mouse osteocalcin EIA kit (described at the website www.btiinc.com/page/cata2.html#mouse_osteocalcin), bone formation in MC3T3 osteoblast cells was assayed by measuring the concentration of OCN.

hERG potassium channel = target: T2, hERG potassium channel (Homo sapiens, UniProt Q12809); test: hERG automated patch clamp assay; assay type: cell-based; settings: inhibition of hERG tail current, 5 minutes at room temperature, CHO-K1 cells stably expressing hERG
T2 construct: expressed in transfected cells; host or cells: CHO-K1
T2 sequence (Q12809 whole entry): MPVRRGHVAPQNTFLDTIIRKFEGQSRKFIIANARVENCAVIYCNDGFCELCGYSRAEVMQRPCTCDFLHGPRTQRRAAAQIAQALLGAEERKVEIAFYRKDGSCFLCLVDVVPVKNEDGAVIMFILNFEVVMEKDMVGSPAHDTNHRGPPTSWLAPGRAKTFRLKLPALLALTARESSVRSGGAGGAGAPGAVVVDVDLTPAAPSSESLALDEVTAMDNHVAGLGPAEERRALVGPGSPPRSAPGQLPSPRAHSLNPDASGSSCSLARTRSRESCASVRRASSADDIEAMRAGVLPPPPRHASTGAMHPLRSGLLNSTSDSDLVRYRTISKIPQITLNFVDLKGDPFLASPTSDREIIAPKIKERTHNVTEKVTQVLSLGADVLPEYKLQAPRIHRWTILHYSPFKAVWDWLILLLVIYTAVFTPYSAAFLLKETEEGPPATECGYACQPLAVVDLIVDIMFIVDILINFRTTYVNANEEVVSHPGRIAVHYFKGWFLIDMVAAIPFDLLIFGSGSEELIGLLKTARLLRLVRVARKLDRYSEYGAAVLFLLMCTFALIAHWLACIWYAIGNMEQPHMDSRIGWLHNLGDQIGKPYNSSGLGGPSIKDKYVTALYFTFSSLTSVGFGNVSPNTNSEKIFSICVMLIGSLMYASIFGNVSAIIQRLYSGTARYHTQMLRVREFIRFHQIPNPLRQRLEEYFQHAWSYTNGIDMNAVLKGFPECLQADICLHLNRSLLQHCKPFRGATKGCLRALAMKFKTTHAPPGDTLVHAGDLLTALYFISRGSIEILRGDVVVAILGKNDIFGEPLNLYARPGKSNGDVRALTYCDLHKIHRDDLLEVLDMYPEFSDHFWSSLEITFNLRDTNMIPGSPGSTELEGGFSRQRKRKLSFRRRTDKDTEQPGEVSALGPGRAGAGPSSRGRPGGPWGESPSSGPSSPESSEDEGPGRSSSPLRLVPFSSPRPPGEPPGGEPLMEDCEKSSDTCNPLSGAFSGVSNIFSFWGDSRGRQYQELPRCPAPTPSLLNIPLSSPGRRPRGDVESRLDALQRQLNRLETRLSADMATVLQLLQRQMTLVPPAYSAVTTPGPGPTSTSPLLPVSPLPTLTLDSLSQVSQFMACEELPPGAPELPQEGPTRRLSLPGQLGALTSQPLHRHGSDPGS
Method: One major type of cardiovascular toxicity associated with pharmaceutical drugs is caused by drug effects on cardiac ion channels like hERG. Drug-induced inhibition of hERG results in a prolonged QT interval, which can lead to a life-threatening ventricular arrhythmia. Therefore, the inhibitory effect of compounds described in Examples 1-46 on the hERG potassium channel was evaluated using an automated patch clamp assay as described in Mathes, C. (2006) Expert Opin. Ther. Targets, 10 (2): 319-327. CHO-K1 cells stably expressing hERG channels were used.

Compound	Sclerostin Inhibition Assay; improvement over sclerostin alone. (sclerostin)	IC100 [1]	IC100 (MC3T3 osteoblast cells)	hERG (1uM) (hERG potassium channel)
COc1ccc2c3ccnc(C)c3n(CCN3CCOCC3)c2c1 [Example 12, 4-(2-(7-methoxy-1-methyl-9H-pyrido[3,4-b]indol-9-yl)ethyl)morpholine]	++ (++ indicates an IC100 < 10 μM)	< 10 µM	< 10 µM	+ (+ indicates less than 50% inhibition of hERG tail current)
COc1ccc2c3ccnc(C)c3n(CCN(C)CCO)c2c1 [Example 18, 2-((2-(7-methoxy-1-methyl-9H-pyrido[3,4-b]indol-9-yl)ethyl)(methyl)amino)ethanol]	++ (++ indicates an IC100 < 10 μM)	< 10 µM	< 10 µM	+ (+ indicates less than 50% inhibition of hERG tail current)
COc1ccc2c(c1)[nH]c1c(C)[n+]([O-])ccc12 [Example 21, 7-methoxy-1-methyl-9H-pyrido[3,4-b]indole pyridine N-oxide]	+ (+ indicates an IC100 > 10 μM)	> 10 µM	> 10 µM	+ (+ indicates less than 50% inhibition of hERG tail current)
COc1ccc2c3ccnc(C)c3n(CC(C)N3CCCCC3)c2c1 (stereo not shown) [Example 9, 7-methoxy-1-methyl-9-(2-(piperidin-1-yl)propyl)-9H-pyrido[3,4-b]indole]	++ (++ indicates an IC100 < 10 μM)	< 10 µM	< 10 µM	+ (+ indicates less than 50% inhibition of hERG tail current)
COc1ccc2c(c1)[nH]c1c(C(F)(F)F)nccc12 [Example 22, 7-methoxy-1-(trifluoromethyl)-9H-pyrido[3,4-b]indole]	++ (++ indicates an IC100 < 10 μM)	< 10 µM	< 10 µM	+ (+ indicates less than 50% inhibition of hERG tail current)
COc1ccc2c3ccnc(C)c3n(CC(C)N3CCOCC3)c2c1 (stereo not shown) [Example 8, 4-(1-(7-methoxy-1-methyl-9H-pyrido[3,4-b]indol-9-yl)propan-2-yl) morpholine]	++ (++ indicates an IC100 < 10 μM)	< 10 µM	< 10 µM	+ (+ indicates less than 50% inhibition of hERG tail current)
COc1ccc2c3ccnc(C)c3n(CCCN3CCOCC3)c2c1 [Example 11, 4-(3-(7-methoxy-1-methyl-9H-pyrido[3,4-b]indol-9-yl)propyl)morpholine formate]	++ (++ indicates an IC100 < 10 μM)	< 10 µM	< 10 µM	+ (+ indicates less than 50% inhibition of hERG tail current)
Cc1nccc2c3ccc(O)cc3n(CCN3CCOCC3)c12 [Example 13, 1-methyl-9-(2-morpholinoethyl)-9H-pyrido[3,4-b]indol-7-ol]	++ (++ indicates an IC100 < 10 μM)	< 10 µM	< 10 µM	+ (+ indicates less than 50% inhibition of hERG tail current)
COc1ccc2c3ccnc(C)c3n(CCCN3CCNCC3)c2c1 [Example 17, 7-methoxy-1-methyl-9-(3-(piperazin-1-yl)propyl)-9H-pyrido[3,4-b]indole trifluoroacetate]	++ (++ indicates an IC100 < 10 μM)	< 10 µM	< 10 µM	+ (+ indicates less than 50% inhibition of hERG tail current)
COc1ccc2c3ccnc(C)c3n(CCN3CCCCC3)c2c1 [Example 10, 7-methoxy-1-methyl-9-(2-(piperidin-1-yl)ethyl)-9H-pyrido[3,4-b]indole]	++ (++ indicates an IC100 < 10 μM)	< 10 µM	< 10 µM	+ (+ indicates less than 50% inhibition of hERG tail current)
CC(Cn1c2ccccc2c2cccnc21)N(C)C (stereo not shown) [Example 1, N,N-dimethyl-1-(9H-pyrido[2,3-b]indol-9-yl)propan-2-amine]	+ (+ indicates an IC100 > 10 μM)	> 10 µM	> 10 µM	+ (+ indicates less than 50% inhibition of hERG tail current)
Cc1nccc2c3ccc(O)cc3n(CC(C)N(C)C)c12 (stereo not shown) [Example 4, 9-(2-(dimethylamino)propyl)-1-methyl-9H-pyrido[3,4-b]indol-7-ol]	++ (++ indicates an IC100 < 10 μM)	< 10 µM	< 10 µM	+ (+ indicates less than 50% inhibition of hERG tail current)
COc1ccc2c3ccnc(C)c3n(CC(C)N(C)C)c2c1 (stereo not shown) [Example 3, 1-(7-methoxy-1-methyl-9H-pyrido[3,4-b]indol-9-yl)-N,N-dimethylpropan-2-aminium formate]	++ (++ indicates an IC100 < 10 μM)	< 10 µM	< 10 µM	+ (+ indicates less than 50% inhibition of hERG tail current)
Oc1ccc2c(c1)[nH]c1c(C(F)(F)F)nccc12 [Example 23, 1-(trifluoromethyl)-9H-pyrido[3,4-b]indol-7-ol]	++ (++ indicates an IC100 < 10 μM)	< 10 µM	< 10 µM	
Cc1nccc2c1[nH]c1cc(Cl)ccc12 [Example 44, 7-chloro-1-methyl-9H-pyrido[3,4-b]indole]	++ (++ indicates an IC100 < 10 μM)	< 10 µM	< 10 µM	

Further lines, with some results ahead:

Sclerostin Inhibition Assay; improvement over sclerostin alone. (sclerostin)	Compound	IC100 [1]	IC100 (MC3T3 osteoblast cells)	hERG (1uM) (hERG potassium channel)
++ (++ indicates an IC100 < 10 μM)	COc1ccc2c3ccnc(C(F)(F)F)c3n(CC(C)N(C)C)c2c1 (stereo not shown) [Example 27, 1-(7-methoxy-1-(trifluoromethyl)-9H-pyrido[3,4-b]indol-9-yl)-N,N-dimethylpropan-2-amine]	< 10 µM	< 10 µM	+ (+ indicates less than 50% inhibition of hERG tail current)
++ (++ indicates an IC100 < 10 μM)	COc1ccc2c3ccnc(C(F)(F)F)c3n(CCN(CCO)CCO)c2c1 [Example 35, 2,2′-((2-(7-methoxy-1-(trifluoromethyl)-9H-pyrido[3,4-b]indol-9-yl)ethyl)azanediyl)diethanol]	< 10 µM	< 10 µM	+ (+ indicates less than 50% inhibition of hERG tail current)
++ (++ indicates an IC100 < 10 μM)	COc1ccc2c(c1)[nH]c1c(C)nc(OC)cc12 [Example 40, 3,7-dimethoxy-1-methyl-9H-pyrido[3,4-b]indole]	< 10 µM	< 10 µM	+ (+ indicates less than 50% inhibition of hERG tail current)
++ (++ indicates an IC100 < 10 μM)	COc1ccc2c3ccnc(C(F)(F)F)c3n(CCN3CCOCC3)c2c1 [Example 25, 4-(2-(7-methoxy-1-(trifluoromethyl)-9H-pyrido[3,4-b]indol-9-yl)ethyl) morpholine]	< 10 µM	< 10 µM	+ (+ indicates less than 50% inhibition of hERG tail current)
++ (++ indicates an IC100 < 10 μM)	COc1ccc2c(c1)[nH]c1c(C)ccnc12 [Example 37, 7-methoxy-4-methyl-5H-pyrido[3,2-b]indole]	< 10 µM	< 10 µM	+ (+ indicates less than 50% inhibition of hERG tail current)
++ (++ indicates an IC100 < 10 μM)	CC1(C)COCCN1CCn1c2cc(O)ccc2c2ccnc(C(F)(F)F)c21 [Example 32, 9-(2-(3,3-dimethylmorpholino)ethyl)-1-(trifluoromethyl)-9H-pyrido[3,4-b]indol-7-ol]	< 10 µM	< 10 µM	+ (+ indicates less than 50% inhibition of hERG tail current)
++ (++ indicates an IC100 < 10 μM)	COc1ccc2c3ccnc(C(F)(F)F)c3n(CCN3CCCCC3)c2c1 [Example 33, 7-methoxy-9-(2-(piperidin-1-yl)ethyl)-1-(trifluoromethyl)-9H-pyrido[3,4-b]indole]	< 10 µM	< 10 µM	
++ (++ indicates an IC100 < 10 μM)	COc1ccc2c3ccnc(C(F)(F)F)c3n(CC(C)N3CCOCC3)c2c1 (stereo not shown) [Example 28, 4-(1-(7-methoxy-1-(trifluoromethyl)-9H-pyrido[3,4-b]indol-9-yl)propan-2-yl)morpholine]	< 10 µM	< 10 µM	

From patent publication US11267814B2, “Compounds for bone growth” (OsteoQC Inc., priority 2013, dated 2022)
